US20140248292A1, “COMPOSITIONS AND METHODS FOR TREATING CANCER” (priority 2013, published 2014)

Columns and labels:
[1] = system: mucinous tumor tissue (PMP-2, PMCA-2, PMP-3, PMP-6); assay: Ex vivo PARP cleavage, Western immunoblot; assay type: cell-based, human; details: 24 h, PMP-2 xenograft tissue and both patient samples
Experimental: The mucinous cell suspension was seeded in 48-well plates (500 μl/well). […] Thereafter, the cells were lysed by using an SDS boiling method as described previously (Andersson2009). In brief, cell pellets were resuspended in lysis buffer (2% SDS, 1 mM Na3VO4, and 10 mM Tris-Cl (pH 7.6)), which was held at 100° C. when added, and the lysates were boiled for 5 min. After six passages through a 20G syringe on ice, the lysates were cleared by centrifugation. Protein concentrations were then determined using the BCA (bicinchoninic acid) protein assay (Pierce, Rockford, Ill.). The lysates were snap frozen in liquid N2 and kept at −70° C. A portion (15 μg) of each protein lysate was fractionated by 4-12% NuPAGE Bis-Tris gel electrophoresis (Invitrogen, Carlsbad, Calif.), and subsequently transferred by electroblotting to Immobilon membranes (Millipore, Bedford, Mass.). The filters were probed with an anti-PARP antibody (Roche Diagnostics, Mannheim, Germany), anti-EpCAM (MOC31, IQ Corporation, Groningen, the Netherlands) or with anti-alpha tubulin (Calbiochem, La Jolla, Calif.). Immune complexes were detected with an appropriate HRP-coupled secondary antibody. Peroxidase activity was visualized with […] (Amersham Pharmacia Biotech, Buckinghamshire, UK). The western blots were probed with anti-α-tubulin antibody to confirm equal loading and transfer of samples.

[2] = system: 2774 ovarian peritoneal carcinomatosis; assay: 2774 ovarian peritoneal carcinomatosis mouse model; assay type: in vivo; details: 2774 model; treatment initiated on day 2
Description: The therapeutic potential of intraperitoneal administration of MOC31PE was then investigated in two experimental mouse models based on the ovarian cancer cell lines B76 (FIG. 15) and 2774 (FIG. 16). The animals were divided into three groups. Day 1 the animals were intraperitoneal injected with B76 cancer cell to mimic the situation in patients after cytoreductive surgery, were non-visible cancer cells are still left. MOC31PE treatment was initiated the day after (Day 2) or on day 8, as indicated by giving either MOC31PE 50 μg/kg intraperitoneal injection (i.p.) or 32 μg/kg intravenous injection (i.v.). […] Disease progression, as increase of abdominal size and other signs of symptoms, were measured twice weekly. Body weight was recorded throughout the experiments. Survival as a function of treatment was analysed by Kaplan-Meier plots.

[3] = system: orthotopic models of mucinous peritoneal surface malignancies; assay: In vivo tumor growth, orthotopic models of mucinous peritoneal surface malignancies (model not singled out); details: all models; 10 mg/kg i.p.
PMCA-1 model = assay: In vivo tumor growth, orthotopic PMCA-1 model, single i.p. injection; details: 5 mg/kg vs 2.5 mg/kg i.p.
PMP-2 model = assay: In vivo tumor growth, orthotopic PMP-2 model, single injection
PMP-1 model = assay: In vivo tumor growth, orthotopic PMP-1 model, single i.p. injection; details: both tested doses (2.5 and 5 mg/kg i.p.)

## pseudomonas exotoxin A [PE toxin]
[1]
  PARP cleavage / PARP inactivation (Western immunoblot): No PARP inactivation was evident

## CC(=O)O[C@H]1C(=O)[C@@]2(C)[C@H]([C@H](OC(=O)c3ccccc3)[C@]3(O)C[C@H](OC(=O)[C@H](O)[C@@H](NC(=O)c4ccccc4)c4ccccc4)C(C)=C1C3(C)C)[C@]1(OC(C)=O)CO[C@@H]1C[C@@H]2O [Ptx, Paclitaxel]
[2]
  survival / disease progression, combinatorial treatment experiment: significant effect on disease progression

## O=C1[O][Pt]2([NH][C@@H]3CCCC[C@H]3[NH]2)[O]C1=O [Oxaliplatin, oxaliplatin]
[3]
  growth inhibition (growth indices) compared to vehicle-treated animals: only slight reduction of growth indices

## CO[C@@]12[C@H](COC(N)=O)C3=C(C(=O)C(C)=C(N)C3=O)N1C[C@@H]1N[C@@H]12 [Mitomycin C, mitomycin C]
PMCA-1 model
  efficacy, comparison of doses: 5 mg/kg was more efficacious than 2.5 mg/kg
PMP-2 model; all tested doses, single i.p.
  inhibition of tumor growth: substantial inhibition of tumor growth
PMP-2 model; both tested doses (2.5 and 5 mg/kg i.p.)
  tumor growth within the observation period: almost completely inhibited tumor growth
PMP-1 model
  tumor growth within the observation period: almost completely inhibited tumor growth
